The record followed here is ChEMBL document CHEMBL3886271, “Method for selectively inhibiting ACAT1 in the treatment of alzheimer's disease” (2015).

This assay concerns the target T1, Sterol O-acyltransferase 2 (Homo sapiens, UniProt O75908).
T1 sequence (O75908 whole entry): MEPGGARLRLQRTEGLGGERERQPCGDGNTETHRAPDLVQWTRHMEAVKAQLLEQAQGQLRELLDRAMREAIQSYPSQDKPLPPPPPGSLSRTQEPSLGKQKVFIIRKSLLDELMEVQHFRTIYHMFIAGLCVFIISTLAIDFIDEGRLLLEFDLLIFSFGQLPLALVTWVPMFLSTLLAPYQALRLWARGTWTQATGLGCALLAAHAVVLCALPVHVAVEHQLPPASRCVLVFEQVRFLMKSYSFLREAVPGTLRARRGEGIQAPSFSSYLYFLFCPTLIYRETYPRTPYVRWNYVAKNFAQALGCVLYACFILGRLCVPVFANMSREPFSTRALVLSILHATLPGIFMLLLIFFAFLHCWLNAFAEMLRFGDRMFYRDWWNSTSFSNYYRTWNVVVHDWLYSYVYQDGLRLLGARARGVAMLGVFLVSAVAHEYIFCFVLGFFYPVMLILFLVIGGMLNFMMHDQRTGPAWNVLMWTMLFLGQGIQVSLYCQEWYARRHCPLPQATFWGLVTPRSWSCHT
The experiment in a line: Inhibition Assay: Methods for assessing the selectively of ACAT1 inhibitors are known in the art and can be based upon any conventional assay including, but not limited to the determination of the half maximal (50%) inhibitory concentration (IC) of a substance (i.e., 50% IC, or IC50), the binding affinity of the inhibitor (i.e., Ki), and/or the half maximal effective concentration (EC50) of the inhibitor for ACAT1 as compared to ACAT2. See, e.g., Lada, et al. (2004) J. Lipid Res. 45:378-386 and U.S. Pat. No. 5,968,749. ACAT1 and ACAT2 proteins that can be employed in such assays are well-known in the art and set forth, e.g., in GENBANK Accession Nos. NP-000010 (human ACAT1) and NP-005882 (human ACAT2). See also U.S. Pat. No. 5,834,283.
In turn, `CCCCCCCCC(=O)CNc1cc(-c2ccccc2)nn1-c1ccccc1` yielded an IC50 of 75 µM.

Compound `CC(C)c1cccc(C(C)C)c1NC(=O)CC(=O)C(Cc1ccccc1)Cc1ccc(OC(=O)CCCCCCN2CCCCCC2=O)cc1` (stereo unspecified) came in with an IC50 of 0.53 µM.

`CC(C)c1cccc(C(C)C)c1NC(=O)CC(=O)C(Cc1ccccc1)Cc1ccc(O)cc1` (stereo unspecified) gave an IC50 of 1.5 µM.

Take `CCCCCCCCCCNc1cc(-c2ccccc2)nn1-c1ccccc1`: the IC50 amounted to 97 µM.

`CCCCCCCC(=O)CNc1cc(-c2ccccc2)nn1-c1ccccc1`: the IC50 worked out at 53 µM.

`CCCC[C@H](C)[C@@H]1CC(=O)N[C@@H](Cc2ccccc2)C(=O)N[C@@H](C)C(=O)N[C@H](CC(C)C)C(=O)O1` [BEAUVERIOLIDE I] yielded an IC50 of 20 µM.
